Test results as given in patent US10870647B2, “Imidazopyridine derivative, method for preparing same, and pharmaceutical composition containing same as active ingredient for preventing or treating cancer” (DAEGU-GYEONGBUK MEDICAL INNOVATION FOUNDATION, priority 2016, dated 2020).

Columns and labels:
Experiment in all cases: Kinase selectivity, scanMAX Kinase assay panel (DiscoverX), % control at 1 uM
Assay type in all cases: binding
[1] = molecular target: T1, scanMAX Kinase assay panel (Homo sapiens, UniProt O94921); details: PFTK1; 1 uM; read-out: Percent Control (%)
T1 construct: purchased DiscoverX
Summary of the method: (§1)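 Single-point screen at 1 uM compound in DMSO. Lower % control means stronger inhibition, with the cutoff for activity set at <35%.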

[2] = molecular target: T2, scanMAX Kinase assay panel (Homo sapiens, UniProt P07949, V804M); details: RET (V804M); 1 uM; read-out: Percent Control (%)
T2 construct: purchased DiscoverX
Summary of the method: as §1

[3] = molecular target: T3, scanMAX Kinase assay panel (Homo sapiens, UniProt P42336, H1047L); details: PIK3CA (H1047L); 1 uM; read-out: Percent Control (%)
T3 construct: purchased DiscoverX
Summary of the method: as §1

[4] = molecular target: T4, scanMAX Kinase assay panel (Homo sapiens, UniProt P54764); details: EPHA4; 1 uM; read-out: Percent Control (%)
T4 construct: purchased DiscoverX
Summary of the method: as §1

[5] = molecular target: T5, scanMAX Kinase assay panel (Homo sapiens, UniProt P57078); details: RIPK4; 1 uM; read-out: Percent Control (%)
T5 construct: purchased DiscoverX
T5 sequence (P57078 1-832): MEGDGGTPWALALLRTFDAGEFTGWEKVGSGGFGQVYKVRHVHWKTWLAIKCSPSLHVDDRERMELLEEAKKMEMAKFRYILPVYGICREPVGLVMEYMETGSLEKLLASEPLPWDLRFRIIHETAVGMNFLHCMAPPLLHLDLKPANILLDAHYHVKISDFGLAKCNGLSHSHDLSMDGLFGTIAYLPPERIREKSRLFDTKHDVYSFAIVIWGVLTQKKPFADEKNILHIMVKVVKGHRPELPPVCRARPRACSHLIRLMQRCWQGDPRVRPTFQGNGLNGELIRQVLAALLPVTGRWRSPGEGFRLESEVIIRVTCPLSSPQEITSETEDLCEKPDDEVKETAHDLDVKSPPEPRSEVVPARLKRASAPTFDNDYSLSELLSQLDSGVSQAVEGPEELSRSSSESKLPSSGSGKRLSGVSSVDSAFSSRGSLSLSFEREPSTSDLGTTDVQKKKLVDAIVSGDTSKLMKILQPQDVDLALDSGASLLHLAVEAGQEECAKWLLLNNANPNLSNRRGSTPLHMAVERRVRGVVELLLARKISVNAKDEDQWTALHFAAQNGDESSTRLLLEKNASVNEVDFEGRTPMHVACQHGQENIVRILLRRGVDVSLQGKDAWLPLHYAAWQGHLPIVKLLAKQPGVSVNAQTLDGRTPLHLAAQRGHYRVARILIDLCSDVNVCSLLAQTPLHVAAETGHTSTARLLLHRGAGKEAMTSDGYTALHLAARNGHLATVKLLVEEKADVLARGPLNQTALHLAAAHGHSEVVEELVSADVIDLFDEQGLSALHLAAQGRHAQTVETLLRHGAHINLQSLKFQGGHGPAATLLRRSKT
Summary of the method: as §1

[6] = molecular target: T6, scanMAX Kinase assay panel (Homo sapiens, UniProt Q16620); details: TRKB; 1 uM; read-out: Percent Control (%)
T6 construct: purchased DiscoverX
Summary of the method: as §1

[7] = molecular target: T7, scanMAX Kinase assay panel (Homo sapiens, UniProt Q59H18); details: TNNI3K; 1 uM; read-out: Percent Control (%)
T7 construct: purchased DiscoverX
T7 sequence (Q59H18 1-835): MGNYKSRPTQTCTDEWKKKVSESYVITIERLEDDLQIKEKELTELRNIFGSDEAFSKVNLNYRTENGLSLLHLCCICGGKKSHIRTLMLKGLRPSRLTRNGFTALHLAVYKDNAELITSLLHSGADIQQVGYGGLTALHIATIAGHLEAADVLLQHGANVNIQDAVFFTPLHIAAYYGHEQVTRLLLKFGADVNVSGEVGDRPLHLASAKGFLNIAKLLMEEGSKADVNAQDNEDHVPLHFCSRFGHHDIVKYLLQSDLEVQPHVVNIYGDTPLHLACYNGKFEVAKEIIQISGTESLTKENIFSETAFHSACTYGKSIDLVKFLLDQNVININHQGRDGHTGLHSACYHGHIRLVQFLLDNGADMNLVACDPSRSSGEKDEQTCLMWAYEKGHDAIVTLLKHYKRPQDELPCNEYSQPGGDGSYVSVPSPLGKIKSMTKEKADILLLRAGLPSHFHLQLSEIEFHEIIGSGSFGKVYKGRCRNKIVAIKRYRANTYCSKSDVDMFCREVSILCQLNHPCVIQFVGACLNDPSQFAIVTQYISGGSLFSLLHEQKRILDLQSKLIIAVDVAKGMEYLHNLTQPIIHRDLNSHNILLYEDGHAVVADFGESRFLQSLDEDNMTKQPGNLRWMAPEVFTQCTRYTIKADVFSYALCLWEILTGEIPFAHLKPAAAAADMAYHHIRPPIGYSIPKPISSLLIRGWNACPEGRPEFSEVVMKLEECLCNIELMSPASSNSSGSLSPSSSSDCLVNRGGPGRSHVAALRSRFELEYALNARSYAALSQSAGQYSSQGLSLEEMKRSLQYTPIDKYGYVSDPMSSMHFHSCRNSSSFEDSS
Summary of the method: as §1

[8] = molecular target: T8, scanMAX Kinase assay panel (Homo sapiens, UniProt Q9NWZ3); details: IRAK4; 1 uM; read-out: Percent Control (%)
T8 construct: purchased DiscoverX
T8 sequence (Q9NWZ3 1-460): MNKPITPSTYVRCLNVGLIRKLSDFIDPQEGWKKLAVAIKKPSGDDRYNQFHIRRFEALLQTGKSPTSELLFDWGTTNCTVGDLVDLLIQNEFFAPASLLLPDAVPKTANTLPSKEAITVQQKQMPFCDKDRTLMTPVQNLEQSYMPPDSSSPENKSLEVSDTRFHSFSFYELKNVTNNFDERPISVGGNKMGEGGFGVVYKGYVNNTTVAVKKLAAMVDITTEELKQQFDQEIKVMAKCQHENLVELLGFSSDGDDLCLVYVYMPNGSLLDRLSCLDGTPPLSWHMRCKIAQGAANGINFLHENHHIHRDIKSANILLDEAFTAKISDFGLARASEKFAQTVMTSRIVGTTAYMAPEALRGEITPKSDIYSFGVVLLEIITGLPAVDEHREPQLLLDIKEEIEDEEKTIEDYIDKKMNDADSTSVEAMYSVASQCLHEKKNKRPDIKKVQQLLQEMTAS
Summary of the method: as §1

T4 sequence (P54764 20-986): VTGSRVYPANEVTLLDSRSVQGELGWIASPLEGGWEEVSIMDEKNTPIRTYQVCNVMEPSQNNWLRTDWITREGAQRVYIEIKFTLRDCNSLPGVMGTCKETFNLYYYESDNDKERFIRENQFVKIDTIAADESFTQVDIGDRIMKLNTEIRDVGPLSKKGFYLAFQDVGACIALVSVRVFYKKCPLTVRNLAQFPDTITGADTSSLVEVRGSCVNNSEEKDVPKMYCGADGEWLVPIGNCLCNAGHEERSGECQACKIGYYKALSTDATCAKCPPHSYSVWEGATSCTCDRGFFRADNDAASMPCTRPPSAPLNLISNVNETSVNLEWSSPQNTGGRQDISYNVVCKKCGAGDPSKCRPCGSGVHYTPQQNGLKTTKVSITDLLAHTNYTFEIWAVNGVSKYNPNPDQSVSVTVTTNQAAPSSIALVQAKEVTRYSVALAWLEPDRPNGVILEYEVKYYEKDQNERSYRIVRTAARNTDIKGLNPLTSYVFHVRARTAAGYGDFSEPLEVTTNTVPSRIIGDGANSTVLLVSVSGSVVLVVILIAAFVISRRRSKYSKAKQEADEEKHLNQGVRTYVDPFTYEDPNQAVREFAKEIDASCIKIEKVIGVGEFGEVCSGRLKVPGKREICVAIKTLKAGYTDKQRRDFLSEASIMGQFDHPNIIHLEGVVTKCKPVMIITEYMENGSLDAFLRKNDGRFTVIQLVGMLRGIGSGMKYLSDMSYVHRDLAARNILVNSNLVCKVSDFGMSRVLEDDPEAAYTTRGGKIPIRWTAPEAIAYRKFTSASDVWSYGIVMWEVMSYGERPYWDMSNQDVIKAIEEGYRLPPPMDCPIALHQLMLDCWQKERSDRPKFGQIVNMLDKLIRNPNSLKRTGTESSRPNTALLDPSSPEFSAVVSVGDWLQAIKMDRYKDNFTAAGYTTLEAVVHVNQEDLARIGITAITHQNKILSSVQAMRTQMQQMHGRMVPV
T6 sequence (Q16620 32-822): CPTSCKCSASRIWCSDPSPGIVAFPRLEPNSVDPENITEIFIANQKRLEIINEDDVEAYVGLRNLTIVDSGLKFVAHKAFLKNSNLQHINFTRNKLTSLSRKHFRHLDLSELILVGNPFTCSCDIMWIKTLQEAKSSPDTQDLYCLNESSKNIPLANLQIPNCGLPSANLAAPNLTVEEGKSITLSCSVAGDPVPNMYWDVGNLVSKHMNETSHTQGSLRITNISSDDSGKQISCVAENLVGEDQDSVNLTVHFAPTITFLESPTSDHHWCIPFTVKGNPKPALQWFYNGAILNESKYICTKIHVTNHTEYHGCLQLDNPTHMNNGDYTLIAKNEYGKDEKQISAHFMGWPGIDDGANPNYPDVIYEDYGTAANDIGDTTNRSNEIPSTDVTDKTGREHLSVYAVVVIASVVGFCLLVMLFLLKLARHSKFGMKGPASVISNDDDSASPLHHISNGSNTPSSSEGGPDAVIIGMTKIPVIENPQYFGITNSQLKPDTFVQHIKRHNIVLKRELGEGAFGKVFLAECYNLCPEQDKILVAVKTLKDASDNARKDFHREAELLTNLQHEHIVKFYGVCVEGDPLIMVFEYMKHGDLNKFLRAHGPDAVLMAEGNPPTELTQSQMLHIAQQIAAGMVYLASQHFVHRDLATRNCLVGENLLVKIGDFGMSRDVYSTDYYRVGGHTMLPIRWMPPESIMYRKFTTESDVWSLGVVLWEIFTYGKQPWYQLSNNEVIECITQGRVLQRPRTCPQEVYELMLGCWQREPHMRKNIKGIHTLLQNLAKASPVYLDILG
T3 sequence (P42336 whole entry H1047L): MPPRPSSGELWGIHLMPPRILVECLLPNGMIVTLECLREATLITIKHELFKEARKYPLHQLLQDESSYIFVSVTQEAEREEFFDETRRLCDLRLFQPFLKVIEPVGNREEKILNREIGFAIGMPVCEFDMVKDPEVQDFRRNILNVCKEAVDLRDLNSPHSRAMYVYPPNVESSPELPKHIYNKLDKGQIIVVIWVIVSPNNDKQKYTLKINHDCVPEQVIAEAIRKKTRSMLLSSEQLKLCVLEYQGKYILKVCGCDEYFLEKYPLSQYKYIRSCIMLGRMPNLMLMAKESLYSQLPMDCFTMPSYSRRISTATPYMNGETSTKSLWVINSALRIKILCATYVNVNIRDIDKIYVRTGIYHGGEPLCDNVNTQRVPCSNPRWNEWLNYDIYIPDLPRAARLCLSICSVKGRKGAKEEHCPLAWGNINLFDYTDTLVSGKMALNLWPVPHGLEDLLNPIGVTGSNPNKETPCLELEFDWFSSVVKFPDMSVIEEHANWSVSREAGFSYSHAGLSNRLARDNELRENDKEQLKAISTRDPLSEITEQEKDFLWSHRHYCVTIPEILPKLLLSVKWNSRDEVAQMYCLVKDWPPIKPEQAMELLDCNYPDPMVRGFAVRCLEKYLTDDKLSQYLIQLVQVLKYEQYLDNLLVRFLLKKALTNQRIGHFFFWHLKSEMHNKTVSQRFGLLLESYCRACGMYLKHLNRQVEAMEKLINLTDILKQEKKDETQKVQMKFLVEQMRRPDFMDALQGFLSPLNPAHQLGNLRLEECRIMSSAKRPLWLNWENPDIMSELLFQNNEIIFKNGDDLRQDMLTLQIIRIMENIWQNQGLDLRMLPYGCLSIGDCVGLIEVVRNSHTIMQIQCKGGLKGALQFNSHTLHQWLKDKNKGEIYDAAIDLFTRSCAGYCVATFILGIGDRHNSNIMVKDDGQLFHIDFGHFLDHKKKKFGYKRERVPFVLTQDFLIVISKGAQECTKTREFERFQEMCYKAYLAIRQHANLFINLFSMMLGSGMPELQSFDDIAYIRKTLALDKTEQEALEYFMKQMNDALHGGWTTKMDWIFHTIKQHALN
T1 sequence (O94921 whole entry): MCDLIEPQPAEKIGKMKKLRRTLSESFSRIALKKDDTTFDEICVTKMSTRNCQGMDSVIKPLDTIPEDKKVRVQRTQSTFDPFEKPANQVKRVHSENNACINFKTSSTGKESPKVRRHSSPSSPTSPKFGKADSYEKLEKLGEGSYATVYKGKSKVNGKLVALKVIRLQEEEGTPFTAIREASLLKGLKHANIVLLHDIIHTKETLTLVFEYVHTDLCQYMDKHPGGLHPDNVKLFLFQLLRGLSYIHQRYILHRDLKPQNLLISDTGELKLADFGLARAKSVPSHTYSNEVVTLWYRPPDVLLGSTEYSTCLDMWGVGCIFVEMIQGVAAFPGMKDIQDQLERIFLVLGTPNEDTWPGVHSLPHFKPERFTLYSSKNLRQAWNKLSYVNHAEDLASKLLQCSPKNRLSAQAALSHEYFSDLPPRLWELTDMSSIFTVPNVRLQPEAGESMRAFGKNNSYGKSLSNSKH
T2 sequence (P07949 29-1114 V804M): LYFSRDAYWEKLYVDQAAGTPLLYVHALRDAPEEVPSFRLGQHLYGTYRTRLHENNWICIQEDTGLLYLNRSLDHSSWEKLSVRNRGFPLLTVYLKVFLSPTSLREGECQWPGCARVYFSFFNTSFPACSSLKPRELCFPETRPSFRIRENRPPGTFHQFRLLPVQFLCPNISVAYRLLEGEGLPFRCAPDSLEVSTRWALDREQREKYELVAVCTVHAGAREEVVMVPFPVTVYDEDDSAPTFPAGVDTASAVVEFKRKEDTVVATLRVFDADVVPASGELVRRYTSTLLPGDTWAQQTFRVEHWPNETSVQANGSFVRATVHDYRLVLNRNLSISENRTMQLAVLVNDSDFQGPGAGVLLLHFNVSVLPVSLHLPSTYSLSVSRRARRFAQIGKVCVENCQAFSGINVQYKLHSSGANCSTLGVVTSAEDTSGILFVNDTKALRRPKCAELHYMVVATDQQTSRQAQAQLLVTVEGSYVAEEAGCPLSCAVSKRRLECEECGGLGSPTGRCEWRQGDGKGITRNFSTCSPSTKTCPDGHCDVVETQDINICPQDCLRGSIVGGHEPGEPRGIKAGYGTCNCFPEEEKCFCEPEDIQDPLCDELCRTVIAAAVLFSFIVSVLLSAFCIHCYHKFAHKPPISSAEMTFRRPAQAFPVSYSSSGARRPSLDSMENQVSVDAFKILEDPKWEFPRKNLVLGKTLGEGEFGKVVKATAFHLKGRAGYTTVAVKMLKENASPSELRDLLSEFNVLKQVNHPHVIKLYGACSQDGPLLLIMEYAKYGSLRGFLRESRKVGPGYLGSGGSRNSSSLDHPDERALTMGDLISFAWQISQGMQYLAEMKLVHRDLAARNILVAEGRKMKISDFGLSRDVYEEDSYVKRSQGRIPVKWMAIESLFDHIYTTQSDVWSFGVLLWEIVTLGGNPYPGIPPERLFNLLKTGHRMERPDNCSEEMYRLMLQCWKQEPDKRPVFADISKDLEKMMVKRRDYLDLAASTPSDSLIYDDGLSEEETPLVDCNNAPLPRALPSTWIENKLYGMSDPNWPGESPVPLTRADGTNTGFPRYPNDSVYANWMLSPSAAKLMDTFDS

Row | SMILES | remaining binding at 1 µM [1] [%] | remaining binding at 1 µM [2] [%] | remaining binding at 1 µM [3] [%] | remaining binding at 1 µM [4] [%] | remaining binding at 1 µM [5] [%] | remaining binding at 1 µM [6] [%] | remaining binding at 1 µM [7] [%] | remaining binding at 1 µM [8] [%]
1 | Cc1ccc(C(=O)Nc2ccc(CN3CCN(C)CC3)c(C(F)(F)F)c2)cc1C#Cc1cnc2c(Nc3cnn(C)c3)cccn12 [Example 1, 4-methyl-3-((8-((1-methyl-1H-pyrazol-4-yl)amino)imidazo[1,2-a]pyridin-3-yl)ethynyl)-N-(4-((4-methylpiperazin-1-yl)methyl)-3-(trifluoromethyl)phenyl)benzamide] | 11 | 0 | 100 | 1 | 13 | 0 | 0 | 22
2 | Cc1cn(-c2cc(NC(=O)c3ccc(C)c(C#Cc4cnc5c(Nc6cnn(C)c6)cccn45)c3)cc(C(F)(F)F)c2)cn1 [Example 12, 4-methyl-N-(3-(4-methyl-1H-imidazol-1-yl)-5-(trifluoromethyl)phenyl)-3-((8-((1-methyl-1H-pyrazol-4-yl)amino)imidazo[1,2-a]pyridin-3-yl)ethynyl)benzamide] | 87 | 1 | 100 | 24 | 100 | 16 | 25 | 81
3 | Cc1ccc(NC(=O)C2(C(=O)Nc3ccc(F)cc3)CC2)cc1C#Cc1cnc2c(Nc3cnn(C(C)C)c3)cccn12 [Example 78] | 100 | 100 | 92 | 91 | 100 | 89 | 93 | 100
